Experimental data reported in PMC8414802, “Hair Cell Generation in Cochlear Culture Models Mediated by Novel γ-Secretase Inhibitors” (Frontiers in Cell and Developmental Biology, 2021).
Like-named read-outs stand apart in the source and are kept apart here.

How the values were obtained:
[1] = tested on: Notch-dependent expression of ATOH1 in LS174T cells; experiment: ATOH1 expression induction in LS174T cell line by GSIs (RT-PCR); type: cell-based, human; details: GSI treatment 72 h, fold-change vs 0.05% DMSO, read-out: IC50 for ATOH1 expression upregulation
Method: The human colon cancer cell line LS174T (CL-188; ATCC) was cultured without antibiotics in 1% FBS/Eagle’s Minimum Essential Medium (MEM; Thermo Fisher) ([Asakura et al., 2018]). […]
(§1) Cells or tissue were lysed using RLT Lysis Buffer (Qiagen) and high purity RNA was prepared on the MagNA Pure instrument using MagNA Pure 96 Cellular RNA LV Kit (Roche). Reagents from Thermo Fisher were used for cDNA synthesis by reverse transcription using random hexamers. Resulting cDNA was RNAse H treated and amplified by TaqMan GEX mastermix and PCR primers and probes for human ATOH1 (Hs00944192_s1) and TBP (Hs00427620_m1), mouse Tbp (Mm00446971_m1), Atoh1 (Mm00476035_s1), Hes5 (Mm00439311_g1), Pouf4s (Mm04213795_s1), and Myo7a (Mm01274015_m1) on the Applied Biosystems QuantStudio 7 Flex Real-Time PCR System. Normalized to Tbp, relative gene expression fold-change was quantified and compared between experimental and control conditions by ΔΔCt calculation.
Statistical analysis was performed with GraphPad Prism software (Prism9; GraphPad Software Inc., San Diego, CA, United States). For explant cultures, when the number of explants/replicates was not sufficient to test for Gaussian distribution normal distribution of the data was assumed based on previous experiments ([Perny et al., 2017]; [Erni et al., 2019]). Alternatively, the distribution of the datasets was tested by D’Agostino and Pearson normality test. Unpaired t-tests were used to compare parametric data sets of two groups. Welch’s correction was applied if variances were not equal. For non-parametric data, the Mann–Whitney test was adopted. One-way ANOVA was used to determine the difference in means among multiple groups and multiple comparison correction was tested. Graphs indicate the single data point, the mean values ± standard deviation. IC50s were calculated by non-linear regression of data normalized by percent change from controls to compare multiple experiments. Differences in IC50s from Best fit data were compared by Least Squares (F-test; Extra sum of squares; alpha = 0.05).
To measure the relative potency between different GSIs, a pharmacological assay was initially used to identify the dose ranges effective to induce ATOH1 expression. The cell line LS174T, a human colorectal adenocarcinoma, was used to evaluate Notch-dependent expression of ATOH1 ([Kazanjian et al., 2010]). Two compounds from Eli Lilly, designated LY3056480 (CPD3) and LY3056359 (CPD8) (Figures 1A,B) were compared with the commercially available GSIs LY411575 and DAPT. […] The intermediate potency of CPD3 and 8 was likely to be adequate to achieve levels above the IC50 after dilution into perilymph in the inner ear.

[2] = tested on: Atoh1, Pou4f3, Myo7a expression in otic spheres; experiment: Otic sphere assay, hair cell gene expression; type: cell-based, mouse
Method: The generation of otic spheres followed previously described protocols ([Oshima et al., 2009]) with modifications during differentiation phase to test GSIs. Briefly, OCs were dissociated and single cells were deposited in ultralow-cluster plates (Corning) and expanded in “full otic medium” consisting of DMEM/F12, supplemented with N2, B27 (Thermo Fisher), EGF (20 ng/ml; Chemicon), bFGF (10 ng/ml; Chemicon), IGF-1 (50 ng/ml; Chemicon), and heparan sulfate (50 ng/ml; Sigma-Aldrich). After culturing for 3–4 days at 37°C, spheres were collected, plated in cell culture-treated 96 well-plate and cultured in DMEM/F12, supplemented with N2, B27 with/without GSIs for 7 days after which they were lysed for RNA extraction.
as §1
CPD3 and CPD8 were further compared for their potency to induce hair cell gene expression in otic sphere assays ([Oshima et al., 2009]). Cells were first expanded in presence of growth factors, and in a second step differentiated by growth factor removal and GSI treatment. […] This indicated a modest advantage of CPD3 in eliciting expression of the early hair cell marker Atoh1, but similar potency on expression of some later markers of HC differentiation, Pou4f3 and Myo7a (Figure 2A). From the results of two screening assays, CPD3 was selected for additional characterization studies based on its lower IC50 to induce Atoh1/ATOH1 expression in the otic spheres and LS174T cells, respectively.

[3] = Inner ear pharmacokinetics after transtympanic administration (perilymph, plasma; LC-MS/MS); type: in vivo, guinea pig; details: 10% POX, sampled at 0.5, 1 and 6 h post-dosing
Method: Female albino Hartley guinea pigs, 250 g, from Charles River (France), housed in macrolon cages (2/cage; Innocage Rat Static-Innovive, Paris) with filter air, were maintained at 22 ± 2°C on a 12-h light cycle with standard A04C (UAR) diet and water “ad libitum.” Lgr5-GFP mice containing an EGFP-IRES-CreERT2 knock-in allele at the Lgr5 locus were obtained from the Jackson Labs (Stock 008875, C57BL/6J/RccHsd background). Atoh1-nGFP transgenic mice (C57Bl/6J background) were from Jane Johnson ([Lumpkin et al., 2003]). Wistar rats were obtained from Charles River.
γ-secretase inhibitors pharmacokinetic studies tested CPD3, CPD8 (Eli Lilly) or LY411575 (Stemcell Technologies) each formulated at 3.4 mg/ml in the following vehicles, 10% Poloxamer 338 (Sigma), 20% Poloxamer 338, 70% PEG400 (Sigma) or 1% hyaluronic acid (HA-700; Lifecore, Chaska, MN, United States) all prepared with PBS (pH 6.2). A single 70 μl injection of the formulated compound (total dose, 870 μg/kg) was delivered to the middle ear space of isoflurane-anesthetized guinea pigs by transtympanic administration. Perilymph from treated animals (perilymph volumes, >2 μl) was collected at time points up to 48 h post-administration (CILcare, Montpellier, France). Briefly, concentrations of each compound in perilymph and plasma, as well as controls prepared in artificial perilymph, were measured by LC-MS/MS on an AB Sciex, API 4000 mass spectrometer using an Onyx C18 5 μm 50^∗2.0 mm separation column (Oroxcell, Romainville, France).
To verify this, in vivo compound concentrations were measured in perilymph of guinea pigs after intratympanic delivery of GSIs into the middle ear. Initially, four vehicle formulations, with different physical properties, were tested, poloxamer 338 (POX; at 10% or 20%), hyaluronic acid (HA), or polyethylene glycol 400 (PEG). For this comparison only one GSI was prepared in each formulation (CPD3, 3.4 mg/ml) and a single dose was injected into the middle ear. Perilymph and plasma were sampled for 48 h (Figure 1D). […] Next, using only 10% POX as vehicle, inner ear adsorption was compared between CPD3, CPD8, and LY411575 by transtympanic injections (Figure 1D, inset). […] Each compound achieved levels several folds above their respective IC50s. The mean maximal perilymph concentration of CPD3 at 0.5 h post-dosing was 85,489 ng/ml (183 μM), then declined at 1 h to 12,928 ng/ml (27.7 μM), and at 6 h to 12,652 ng/ml (27.1 μM). GSIs in plasma samples were not detected (data not shown).

[4] = tested on: hair cell genes Atoh1, Pou4f3, Myo7a in OC explants; experiment: Hair cell gene expression in organ of Corti explants (RT-PCR); type: cell-based, mouse; details: 5 μM, 4 days, vs DMSO
Method: OC explants were isolated from postnatal day 2 (P2) Wistar rats, P0-P2 mice (Lgr5-GFP or Atoh1-nGFP mice). Dissection of the cochlea under a stereomicroscope (Nikon SMZ800, Japan) allowed OC separation from stria vascularis and modiolus, and the sensory epithelium was plated with hair cells facing up on Cell-Tak (Corning, United States)-coated transwell-clear inserts (6-well format, 0.4 μm pore, Corning, United States). Dissection medium was exchanged for 1.5 ml full otic medium supplemented with 10% FBS (Invitrogen) and 0.01% Ampicillin (Sigma), added under the insert membrane, maintaining the OC under a thin film of medium during culture at 37°C. 5-ethyl-2′-deoxyuridine (EdU, 5 μM, Life Technologies) was added directly in the medium when indicated.
Concentrations of small molecule GSIs {LY411575, CPD3, CPD8, DAPT (N-[N-(3,5-Difluorophenacetyl)-L-alanyl]-S-phenylglycine t-butyl ester; Sigma)} were prepared in DMSO and are indicated in Figure Legends and Results. DMSO included as Control. Treatment groups were assigned randomly.
as §1
FIGURE 2 GSI-mediated induction of hair cell gene expression and de novo generation of hair cells in the neonatal cochlear sensory epithelium. (A) Gene expression changes of Atoh1, Pou4f3, and Myo7a in response to Notch pathway inhibition by CPD3 (solid lines, triangles) and CPD8 (dashed lines, open square) in otic spheres. Gene expression is reported as fold-change relative to carrier control-treated (DMSO, 0.05%). (n = 9–12). […] (B) Gene expression analysis for the hair cell genes Atoh-1, Myo7a, and Pou4f3. DMSO control n = 13, CPD3 n = 12, LY411575 n = 9, DAPT n = 6 from 2–4 independent experiments. OC explants were cultured for 4 days with/without GSI prior to lysis and analysis. One-way ANOVA with Dunnett’s multiple comparison test, each condition compared to DMSO control. (*p < 0.05, **p < 0.005, ***p < 0.001). (C) Cell counts of Atoh1 positive HCs (OHC left, IHC right) in the mouse cochlear sensory epithelium in the mid-apex region after 7 days in culture with different γ-secretase inhibitors. One-way ANOVA Dunnett’s multiple comparison test, each condition compared to DMSO control. (*p < 0.05; n = 3–5 independent experiments). (D) Quantification of Pou4f3 positive HCs (OHC left, IHC right) in the cochlear sensory epithelium from P2 rats in the apical domain after 8 days in culture with different γ-secretase inhibitors. One-way ANOVA with Dunnett’s multiple comparison test, each condition compared to DMSO control (*p < 0.05, n = 3). Representative immunohistological images of the apical domain after 8 days incubation (inset). scale bar = 20 μm. (E) Quantification of Pou4f3 positive OHCs in the apex, middle and basal domain of organ of Corti explants from rats after 4 days of CPD3 treatment compared to DMSO (*p < 0.05, unpaired t-test) n = 4–6 explants from 2 independent experiments.

SMILES: C[C@H](NC(=O)CCC(F)(F)F)C(=O)N[C@@H]1C(=O)C=C2N(CCC2(C)C)c2ncccc21 [CPD8]
- IC50 ([1]; Homo sapiens): 62 nM
- IC50 ([2]; Mus musculus, 168 h, 7 days differentiation with GSI, read-out: IC50 for Atoh1 upregulation): 303 nM
- Induction of Atoh1, Pou4f3 and Myo7a expression ([2]; dose-responsive, p < 0.05): significantly induced
- Perilymph concentrations quantifiable [3]: quantifiable at all time points

SMILES: C[C@H](NC(=O)Cc1cc(F)cc(F)c1)C(=O)N[C@H](C(=O)OC(C)(C)C)c1ccccc1 [DAPT, N-[N-(3,5-Difluorophenacetyl)-L-alanyl]-S-phenylglycine t-butyl ester]
- Atoh1 expression [4]: 2.36 ± 0.39 fold
- Myo7a expression [4]: 1.59 ± 0.21 fold
- Pou4f3 expression [4]: 2.14 ± 0.36 fold
- IC50 [1]: 1400 nM
